According to patent US20050272649A1, “Conjoint administration of morphogens and ACE inhibitors in treatment of chronic renal failure” (priority 2002, published 2005):
Entries after “also recorded” stand apart in the source; their conditions may differ. Like-named read-outs stand apart in the source and are kept apart here.

Test system: streptozotocin diabetic Sprague-Dawley rats
Assay type: in vivo
Settings: for GFR (ml/min/100 g bw): inulin clearance at 32 weeks; for mesangial matrix accumulation (in words): PAS / Trichrome histology at 32 weeks; for kidney weight / renal hypertrophy (in words): treatment weeks 16-32, versus vehicle-treated diabetic rats
Experimental: A long-term streptozotocin model of diabetic nephropathy was used to test and compare the therapeutic actions of BMP-7 with those of Enalapril. The study design was a treatment protocol beginning at 16 weeks when glomerular hypertrophy and proteinuria were established. The effects of therapy with BMP-7 (10, 30, or 100 μg/kg iv, biw) were compared to a maximal dose of Enalapril (20 mg/kg) and to a vehicle control. […] The GFR of 32 week diabetic Enalapril treated rats was 0.58±0.06 (not significant compared to vehicle treated and sham injected rats 0.55±0.02).
Animals: Female Sprague-Dawley rats 10 weeks of age weighing 190-220 g were used. Animals were allowed free access to standard rat chow and to tap water. Diabetes mellitus was induced by a single tail-vein injection of Streptozotocin (STZ 62 mg/kg of body weight, Sigma chemical company, St. Louis, Mo.) dissolved in normal saline at day 0. The diabetic state was confirmed 72 hours later by the determination of blood glucose concentration>300 mg/dl. From day 3, all the diabetic rats received daily subcutaneous injections of 1.0-7.0 u human recombinant long-acting insulin injection (Eli Lilly & Co., Indianapolis, Ind.) as required to maintain the blood glucose concentration between 300-500 mg/dl. Tail blood glucose levels were measured twice a week with an Accu—Chek™ Advantage meter (Roche Diagnostic Corporation, Indianapolis, Ind.). Body weights were taken once a week. Food and water intake were monitored daily.
Renal hypertrophy was well developed at 16 weeks prior to treatment with vehicle, BMP-7, or enalapril. […], animals were divided into 8 groups. Group 1 were 16 weeks of DM. Group 2 were 16 weeks normal controls. Group 3 DM animals were treated with tail-vein injection of vehicle twice a week for 16 weeks. Group 4, Group 5, and Group 6 were DM animals treated with tail-vein injections of BMP-7 100, 30, and 10 μg/kg body weight respectively twice a week for 16 weeks. Group 7 were treated with Enalapril 20 mg/kg through the drinking water for 16 weeks. […] Group 1 and Group 2 animals were sacrificed at 16 weeks. The others were sacrificed at 32 weeks. All treatments began at 16 weeks and continued through 32 weeks. Glomerular filtration rate (GFR), urine albumin excretion, kidney weight, glomerular area, mesangial matrix area, interstitial volume, monocyte and macrophage infiltration, thickness of glomerular basement membrane (GBM) and glomerulosclerosis were measured.
Renal Function: In all animals, glomerular filtration rate (GFR) was measured as the clearance of inulin. Rats were anesthetized with a Ketamine/Xylozine cocktail. A catheter was inserted into the femoral vein under a dissecting microscope for infusion. Another catheter was placed into the femoral artery for collecting blood samples. Urine was collected by bladder cannulation.
After the completion of surgery, a bolus of 2 ml/kg of 3% inulin (Cypros Pharmaceutical Corp, W. Carlsbad, Calif.) and 0.2% p-aminohippurate (PAH) in normal saline was infused as a priming load, followed by a sustaining infusion of the same solution at the rate of 8 ml/h·kg. Urine collection was initiated for three 20-minute collection periods after an hour of equilibration. An arterial blood sample was obtained during each clearance period. Plasma and urine were analyzed for inulin.
Urine volume was measured and urinary protein concentration was determined with a Bio-Rad protein assay.
Preparation of Kidneys: After the clearance studies, the rats were euthanized. Both kidneys were rapidly removed and placed in ice-cold phosphate buffered saline (PBS). Kidneys were weighed and then sliced on a cold glass plate. Two 2 mm coronal sections were immersed in Histochoice and in 10% buffered formalin. Kidney sections were embedded in paraffin and cut at 3 μm and stained with hematoxylin and eosin, Gomori's Trichrome and periodic acid Schiff (PAS).
Renal Morphology: The morphometric analysis was done in a blind manner. […]

[1] = Enalapril 20 mg/kg in drinking water (100 mg/l)
[2] = Enalapril 20 mg/kg in drinking water (100 mg/l), weeks 16-32
[3] = Enalapril 20 mg/kg in drinking water (100 mg/l), weeks 16-32, at 32 weeks
[4] = treatment weeks 16-32, listed as Enalapril

CCOC(=O)[C@H](CCc1ccccc1)N[C@@H](C)C(=O)N1CCC[C@H]1C(=O)O [enalapril, N-(1-ethoxycarbonyl-3-phenylpropyl)-L-ananyl-L-proline, reference compound]
renal BMP-7 expression (in situ hybridization) (32 weeks): restored BMP-7 expression at high levels in the collecting duct; also recorded: restored BMP-7 expression in its normal pattern at high levels; also recorded: restored the normal distribution of BMP-7 expression
renal Wnt4 expression (in situ hybridization) (32 weeks): without affecting Wnt4 expression; also recorded: do not affect Wnt4 expression; also recorded: had no effect on Wnt4 expression
monocyte/macrophage tubulointerstitial infiltration (ED-1 positive cells, 32 weeks): decreased the tubulointerstitial infiltration
Cause-Mortality hypoglycemia [1]: 1/10
Cause-Mortality ketoacidosis [1]: 1/10
Cause-Mortality unknown [1]: 1/10
Body Weight (g) End [2]: 294.9 ± 4.4 g
Body Weight (g) Weight Gain [2]: 78.7 ± 5.9 g
Protein Ex (mg/day), urine protein excretion [3]: 33.59 ± 7.58 mg/day
kidney weight [3]: 1.09 ± 0.04 g
kidney weight (Enalapril 20 mg/kg in drinking water (100 mg/l), weeks 16-32, at 32 weeks, listed as E): 1.09 ± 0.04 g
Mortality (Enalapril 20 mg/kg in drinking water (100 mg/l), weeks 16-32, deaths/animals): 3/10
GFR (ml/min/100 g bw) (Enalapril 20 mg/kg in drinking water (100 mg/l), weeks 16-32, listed as E): 0.58 ± 0.06 ml/min/100 g bw
GFR (ml/min/100 g bw) (Enalapril 20 mg/kg in drinking water (100 mg/l), weeks 16-32, listed as Enalapril): 0.58±0.06 ml/min/100 g bw
cortical interstitial area / volume (Enalapril 20 mg/kg, weeks 16-32, DM vehicle 13.1±0.7%): 10.3±0.4%
mesangial matrix accumulation (in words): more mesangial matrix accumulation
mesangial matrix accumulation (in words) (listed as Enalapril): less effective than intermediate or high dose BMP-7 in eliminating accumulation of mesangial matrix
glomerulosclerosis (in words) (treatment weeks 16-32): decreased glomerular sclerosis; also recorded: markedly reduced
urine protein excretion / proteinuria / albuminuria (in words) (treatment weeks 16-32): reversed
GFR (in words) (treatment weeks 16-32, versus vehicle-treated diabetic and normal rats): normal or greater; also recorded: restored GFR to normal or slightly above normal
kidney weight / renal hypertrophy (in words): partially reversed diabetic renal hypertrophy
kidney weight / renal hypertrophy (in words) (listed as Enalapril): equal in partially reversing kidney hypertrophy; also recorded: equally effective
glomerular area / glomerular hypertrophy (in words) [4]: significantly decreased; also recorded: equally effective
glomerulosclerosis (in words) [4]: less effective in preventing glomerulosclerosis; also recorded: less so by Enalapril
interstitial volume (in words) [4]: significantly decreased; also recorded: equally effective
systolic blood pressure (tail artery cuff) [4]: controlled hypertension throughout the course of therapy; also recorded: reversed the hypertension of the diabetic rats; also recorded: normalized blood pressure during the entire 16 week course of therapy; also recorded: restored blood pressure to normal
